Results reported in patent US10300107B2, “Compositions and methods for CaMKII inhibitors and uses thereof” (THE REGENTS OF THE UNIVERSITY OF COLORADO, priority 2007, dated 2019).
“And” between values parts separate entries of the source, which are not always exact repeats. Equal entries are not always repeated. “Also recorded” adds a separate entry of the source. Where two headings read alike, the source gives them in different places. Where no end group is shown, it is not given here.

Tests used:
[1] = test system: hippocampal and cortical cultures; assay: Glutamate induced neuronal cell death measured by LDH release; format: cell-based, rat
Experimental: In another example, neuronal cell death is measured by LDH release. In this exemplary method, glutamate was used to induce neuronal cell death, A portion of CaMKIIN was fused to a cell penetrating molecule to generate tatCN21a construct.

Langerhans' islets = assay: Glucose-induced insulin secretion from isolated Langerhans' islets; format: cell-based, rat; conditions: 11 mM glucose; EGTA 0.5 mM, KN93 10 μM, antCN27 5 μM, tatCN21 5 μM
Experimental: Insulin secretion. Langerhans' islets acutely isolated from adult male Wistar rats (Harlan) were obtained. […] Inhibitors or EGTA were added 30 min before stimulation. Insulin secreted into the medium during 90 min stimulation was measured using an ELISA kit (CrystalChem).

[2] = target: T1, CaMKII binding to GST-NR2B-c (Homo sapiens, UniProt Q9UQM7); assay: Ca2+/CaM-induced CaMKII binding to immobilized GST-NR2B-c; conditions: Western blot of eluted CaMKII
T1 construct: made in house; host or cells: CaMKII: baculovirus/Sf9; GST-NR2B-c and CaM: bacteria
Experimental: CaMKII binding to NR2B-c was assessed as previously described. Briefly, GST-NR2B-c was immobilized on anti-GST coated microtiter plates, then overlaid with 100 nM CaMKII in presence of Ca^2+/CaM and 1 or 5 μM of various CN peptides. After extensive wash, protein was eluted from the plates by boiling in SDS-loading buffer. Eluted CaMKII was detected by Western-blot as described above.

CaMKII [3] = target: T2, CaMKII (Homo sapiens, UniProt Q9UQM7); assay: CaMKII auto- and protein-phosphorylation (MAP2, T286, T305; immuno-blot); format: biochemical; conditions: KN93 10 μM
T2 construct: made in house; host or cells: baculovirus/Sf9 cells
Experimental: CaMKII auto- and protein-phosphorylation. 10 nM MAP2 (˜140 nM phosphorylation sites) was used instead of substrate peptide, and reaction times were 5 min, unless indicated otherwise. CaMKII concentration was 100 nM subunits (=8.3 nM holoenzymes). Auto- and MAP2-phosphorylation were assessed by Immuno-blot analysis previously derived (Bayer et al., 2002, incorporated herein by reference) with phospho-T286- or -T305-specific antibodies (1:500; PhosphoSolutions) and an anti-phospho-Thr antibody (1:500; Zymed), respectively. Total CaMKIIα was detected with CBα2 antibody (1:2000; GIBCO). Protein were separated on 10% poly-acrylamid SDS Gels, and electro-blotted onto “Protran” 0.2 μm pore nitrocelluse filters (e.g. Schleicher & Schull) or onto PVDF filters (e.g. Perkin Elmer). Alternatively, for quantitative analyses, a vacuum-driven slot-blot manifold (e.g. Schleicher & Schull) was used for transfer onto PVDF membranes. PVDF membranes were air-dried for 15 min, then wetted in Methanol. Blots were blocked in 5% milk in TBS-T (Tris-buffered saline pH 7.6 with 0.1% Tween-20). Antibodies were incubated for 45-60 min at room temperature in 2.5% milk in TBS-T; for the anti-phospho-T305 antibody, 2.5% BSA was used instead. After secondary antibody incubation (anti-mouse or anti-rabbit horseradish peroxidase conjugate; Amersham; 1:4000), detection was done using the “Western Lightning” system (Perkin Elmer) and exposure to “Hyperfilm” (Amersham). For quantitative analysis, chemoluminescence was captured using a ChemiImager 4400 imaging system (Alpha Innotek) instead of film. Only non-saturated images were analyzed, using AlphaEase software.

CaMKII [4] = target: T2, CaMKII; assay: Autonomous CaMKII activity (pre-autophosphorylated CaMKII); format: biochemical
Experimental: (§1) Stimulated CaMKII activity was assessed using purified CaMKII, [γ^32P]ATP, and the CaMKII substrate, syntide2. Reaction was initiated by addition of calcium and calmodulin. To measure autonomous activity, CaMKII was pre-autophosphorylated by incubation with calcium and calmodulin, which was then chelated by addition of EDTA prior to adding the kinase to syntide2 and [γ^32P]ATP. […] To measure self-association, purified CaMKII was incubated for five minutes with 1mM ADP, calcium and calmodulin, and the appropriate inhibitor. The reaction mixture was then centrifuged to pellet the self-associated kinase. The supernatant (S) was removed and saved and the pellet (P) was resuspended. Both were then resolved by SDS-PAGE and western-blotted for CaMKII. Self-associated kinase is found in the pellet.

CaMKII [5] = format: biochemical; conditions: for potency of CaMKII inhibition of CN19 combination mutants: comparator as stated in the value; for effect of further mutation on potency of CaMKII inhibition: CN19a2v background; for IC50: read-out: IC50 of CaMKII inhibition
Experimental: CaMKII activity assays. Standard CaMKII assays were done for 1 min at 30° C. previously described, with 20 nM CaMKII (subunit, not holoenzyme concentration), 50 mM PIPES pH 7.2, 0.1 mg/ml BSA, 10 mM MgCl2, 100 μM [γ-^32P] ATP (˜1 Ci/mmol), 1 mM CaCl2, 1-2 μM CaM, and 30-60 μM AC2 peptide (or syntide2). The reactions were spotted onto Whatman P81 phosphocellulose paper rectangles (˜2×2.5 cm). To remove free radioactivity, the paper rectangles were rinsed and washed for 30 min under agitation in 0.5% phosphoric acid or water. […] Radioactivity of the bound peptides was quantified in a Beckman 6000TA scintillation counter by the Cherenkov method. Any changes of the standard protocol were done as indicated. For assays of the GFP-CaMKIIα mutants, kinase amounts were normalized by GFP fluorescence in the extract, and total protein was adjusted with Cos-7 extracts.

CaMKII [6] = target: T2, CaMKII; assay: CaMKII self-association in vitro; format: biochemical
Experimental: as §1

CaMKI = CaMKI (Homo sapiens, UniProt Q14012); assay: CaMKI activity / inhibition; format: biochemical
CaMKI, sequence (Q14012 whole entry, species assumed): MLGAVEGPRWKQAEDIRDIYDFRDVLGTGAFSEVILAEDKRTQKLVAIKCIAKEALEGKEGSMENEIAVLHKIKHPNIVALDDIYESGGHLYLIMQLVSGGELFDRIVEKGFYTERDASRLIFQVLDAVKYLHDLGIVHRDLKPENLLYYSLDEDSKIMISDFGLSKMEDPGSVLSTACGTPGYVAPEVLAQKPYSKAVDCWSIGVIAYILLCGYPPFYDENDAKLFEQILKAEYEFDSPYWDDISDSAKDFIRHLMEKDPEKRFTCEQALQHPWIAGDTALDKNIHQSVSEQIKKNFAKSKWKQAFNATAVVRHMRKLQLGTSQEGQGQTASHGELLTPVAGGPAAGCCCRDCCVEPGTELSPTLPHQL
Description: For curve fit, the Hill coefficient was set as 1.

protein kinase C (PKC) = assay: Phosphorylation of CN19 peptides by PKC in vitro; format: biochemical
Description: CN19 phosphorylation at S12 by protein kinase C reduces potency of CaMKII inhibition. In another exemplary method, protein kinase C (PKC) activity was examined with respect to CN19 as a substrate or the S12 mutant. […] The CN19 region most sensitive to Ala substitutions (surrounding R11) contains a potential PKC phosphorylation site (S12).
FIGS. 22A and 22B represent CN19 phosphorylation at S12 by PKC reduces potency of CaMKII inhibition. A, PKC phosphorylated CN19 but not its S12A mutant in vitro, as measured by phosphate incorporation. The phosphorylation rate of CN19 was >50% compared to a MARCKS peptide substrate of PKC. […] S12 was sensitive also to various other mutations (see Table 1 and data not shown). Error bars indicate s.e.m. in all panels.

calmodulin (CaM) = calmodulin (CaM) (Homo sapiens, UniProt P0DP23); assay: Binding to calmodulin (slot blot, blot overlay, TA-CaM competition with CBD); conditions: for binding of biotinylated CaM to immobilized peptide: slot blot
Experimental: TA-labeled CaM represents reduced fluorescence after binding to CaMKII or its CaM binding domain (CBD; −0.05 nM kD for CaM^5; see also FIG. 9G).
Measured was AC2 phosphorylation as described^4. Error bars show s.e.m.

N[C@@H](CCCP(=O)(O)O)C(=O)O [APV]
glutamate induced cell death ([1]; 7DIV cortical, added 1-6 hours post insult): did not
glutamate induced neuronal cell death ([1]; present during the insult): only reduces cell death when present during the insult

O=C(O)CN(CCOCCOCCN(CC(=O)O)CC(=O)O)CC(=O)O [EGTA]
glucose-induced insulin secretion (Langerhans' islets): inhibited

CC1CNCCN1S(=O)(=O)c1cccc2cnccc12 (stereo not shown) [H7, reference compound]
CaMKII binding to immobilized GST-NR2B-c / NR2B [2]: did not

COc1ccc(S(=O)(=O)N(CCO)c2ccccc2CN(C)C/C=C/c2ccc(Cl)cc2)cc1 [KN93, reference compound]
CaMKII T305 auto-phosphorylation (CaMKII [3]; CN21 5 μM): blocked T305
CaMKII T286 auto-phosphorylation (CaMKII [3]; CN peptides 1-5 μM): essentially completely blocked
autonomous CaMKII activity (CaMKII [4]): only tatCN21 inhibits autonomy
calcium and calmodulin stimulated CaMKII activity (CaMKII [5]; substrate syntide2): inhibit calcium and calmodulin stimulated CaMKII activity
CaMKII self-association in vitro (CaMKII [6]): inhibited
glucose-induced insulin secretion (Langerhans' islets): inhibited
glutamate induced neuronal cell death ([1]; added 1 h after the insult): not when added after the insult; also recorded: only when applied during but not after glutamate insult
glutamate induced neuronal cell death ([1]; present during the insult): protective only when present during the insult; also recorded: reduce by half
CaMKII binding to immobilized GST-NR2B-c / NR2B [2]: inhibited binding

CN17a: C-terminal truncation of CN21a by 4 amino acids (KRPPKLGQIGRSKRVVI)
inhibitory potency on CaMKII activity (CaMKII [5]; CN truncation peptides, substrate peptides AC2 or syntide 2): still clearly affected CaMKII activity

CN19a2: CN19 double mutant P3A, R14A, SEQ ID NO: 25 (KRAPKLGQIGRSKAVVIED; Derived from CamKIIN with amino acid substitutions)
potency of CaMKII inhibition of CN19 combination mutants (CaMKII [5]): largest increase in CaMKII inhibition potency; also recorded: most potent double mutant of CN19
potency of CaMKII inhibition of CN19 combination mutants (CaMKII [5]; listed as a2): higher potency than the a3 mutant; also recorded: significant inhibition even at 10 nM

CN19a3: CN19 triple mutant P3A, K13A, R14A (KRAPKLGQIGRSAAVVIED)
potency of CaMKII inhibition of CN19 combination mutants (CaMKII [5]): significantly increased over CN19 wild type; also recorded: significantly increased potency compared to single mutant with the highest potency, R14A
potency of CaMKII inhibition of CN19 combination mutants (CaMKII [5]; listed as a3): significantly increased potency of CaMKII inhibition over CN19 wild type; also recorded: slightly better inhibition than the aX mutant

CN27: CaM-KIINtide, previously identified inhibitory region of CaM-KIIN, SEQ ID NO:17 (KRPPKLGQIGRSKRVVIEDDRIDDVLK; Derived from CaMKIIN) [reference compound]
inhibition of CaMKII isoforms α and β (CaMKII [5]): inhibit both major brain CaMKII isoforms, α and β
effect on CaMKI activity (CaMKI): no significant effect

KRAPKLGQIGRQKAVVIED [CN19a2v V12Q]
effect of further mutation on potency of CaMKII inhibition (CaMKII [5]): significantly increase potency; also recorded: dramatically increase CaMKII inhibition
IC50 (CaMKII [5]; phosphorylation of syntide 2): ~1 nM

KRAPKLGQIGRVKAVDIED [CN19a2v V16D]
effect of further mutation on potency of CaMKII inhibition (CaMKII [5]): significantly increase potency; also recorded: dramatically increase CaMKII inhibition
IC50 (CaMKII [5]; phosphorylation of syntide 2): ~1 nM

KRAPKLGQIGRVKAVVIED [CN19a2v]
increase of potency of CaMKII inhibition compared to CN19 (CaMKII [5]): about 5 fold
potency of CaMKII inhibition of CN19 combination mutants (CaMKII [5]): without loss of inhibition potency; also recorded: significantly stronger compared to CN19a3 with additional S12V mutation; also recorded: did not reduce potency
IC50 (CaMKII [5]; phosphorylation of syntide 2): ~20 nM and 20 nM
IC50 (CaMKI): ~18000 nM

KRPPKLGQIGRSKAVVIED [R14A]
increase of potency of CaMKII inhibition compared to CN19 (CaMKII [5]): over 10 fold
effect of single CN19 mutation on potency of CaMKII inhibition (CaMKII [5]; compared to CN19 wild type): significantly increased potency; also recorded: very potent
IC50 of CaMKII inhibition (CaMKII [5]; phosphorylation of syntide 2): single digit

KRPPKLGQIGRSKRVVIED [CN19]
phosphorylated by PKC (protein kinase C (PKC)): phosphorylated by PKC
phosphorylation rate by PKC compared to MARCKS peptide substrate (protein kinase C (PKC)): > 50%
IC50 (CaMKI): ~36000 nM
effect on CaMKI activity (CaMKI): no significant effect

KRPPKLGQIGRSKRVVIEDD [CN20]
IC50 (CaMKII [5]; phosphorylation of syntide 2): ~100 nM

RQIKIWFQNRRMKWK [ant]
Kd (calmodulin (CaM)): ~5 nM
competition with CBD for binding of TA-labeled CaM (calmodulin (CaM)): compete
interference with Ca2+-dependent CaM binding to brain proteins (calmodulin (CaM); blot overlay assay, 5 μM peptide): also interfered with such CaM binding, but somewhat less efficiently than antCN27; also recorded: affect Ca^2+-dependent CaM binding
binding of biotinylated CaM to immobilized peptide (calmodulin (CaM)): Direct binding

V16D: CN19 position 16 substituted with D (rational mutagenesis) (KRAPKLGQIGRVKAVDIED)
Effects of individual CN19 mutations on CaMKII inhibition: column + (CaMKII [5]; value = substituting residue listed under +): D*

tat: cell penetrating sequence YGRKKRRQRRR, SEQ ID NO:15 [reference compound]
binding of biotinylated CaM to immobilized peptide (calmodulin (CaM)): did not bind
effect on CaMKI activity (CaMKI): statistically significant but much milder effects
